In article PMC10386613 (Molecules, 2023):
Values joined by “and” are separate entries in the source; they are usually repeats but may differ in a detail not shown here. Equal entries are not always repeated. Where two headings read alike, the source gives them in different places.

Experiments:
[1] = target: T1, neuraminidase from Clostridium perfringens (Clostridium perfringens, UniProt A0A0H2YQR1); type: biochemical; details: for Ki: Dixon plot, read-out: Ki (inhibition constant); for Inhibition Mode: Lineweaver–Burk plot; for IC50: fluorescent substrate 100 μM, 0.2 unit/mL enzyme, 50 mM sodium acetate buffer, read-out: IC50 against bacterial neuraminidase (BNA)
[2] = target: T1, neuraminidase from Clostridium perfringens; type: binding; details: for KSV (Stern–Volmer quenching constant): excitation 290 nm, emission near 360 nm
[3] = fluorescence quenching, without substrate

T1 sequence (A0A0H2YQR1 42-694 limits assumed): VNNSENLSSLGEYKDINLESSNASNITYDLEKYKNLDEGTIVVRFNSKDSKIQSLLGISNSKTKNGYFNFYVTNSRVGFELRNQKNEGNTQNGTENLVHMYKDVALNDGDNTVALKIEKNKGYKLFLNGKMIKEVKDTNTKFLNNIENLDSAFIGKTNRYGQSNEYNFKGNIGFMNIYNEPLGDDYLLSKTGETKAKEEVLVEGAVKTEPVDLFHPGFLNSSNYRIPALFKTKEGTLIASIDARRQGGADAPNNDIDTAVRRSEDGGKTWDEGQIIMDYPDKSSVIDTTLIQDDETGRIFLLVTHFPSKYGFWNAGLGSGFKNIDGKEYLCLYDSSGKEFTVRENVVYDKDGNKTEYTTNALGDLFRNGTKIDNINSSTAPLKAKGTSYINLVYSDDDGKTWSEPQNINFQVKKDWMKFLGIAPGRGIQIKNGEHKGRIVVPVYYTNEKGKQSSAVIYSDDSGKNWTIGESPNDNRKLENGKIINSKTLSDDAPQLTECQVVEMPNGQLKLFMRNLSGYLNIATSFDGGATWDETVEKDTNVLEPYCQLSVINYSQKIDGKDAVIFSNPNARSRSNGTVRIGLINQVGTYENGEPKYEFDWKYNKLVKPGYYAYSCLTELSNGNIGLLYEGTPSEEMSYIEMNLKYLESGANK

3,4′-O-dimethyl quercetin [Compound 2]
Ki [1]: 24.7 ± 0.5 µM
Inhibition Mode [1]: Noncompetitive
IC50 [1]: 24.3 µM and 25.8 µM
KSV (Stern–Volmer quenching constant) ([2]; without substrate): 1440 L/mol
KA (binding constant) [2, 3]: 39940 L/mol
n (number of binding sites) [2, 3]: 1.1063

3,7-O-dimethyl quercetin [Compound 3]
Ki [1]: 22.4 ± 0.9 µM
Inhibition Mode [1]: Noncompetitive
IC50 [1]: 25.8 µM and 24.3 µM
KSV (Stern–Volmer quenching constant) ([2]; without substrate): 1530 L/mol
KA (binding constant) [2, 3]: 38180 L/mol
n (number of binding sites) [2, 3]: 1.0959

COc1c(-c2ccc(O)c(O)c2)oc2cc(O)cc(O)c2c1=O [Compound 1, 3-O-methyl quercetin]
Inhibition Mode [1]: Noncompetitive
KA (binding constant) [2]: 0.05105
KSV (Stern–Volmer quenching constant) ([2]; without substrate): 2520 L/mol
n (number of binding sites) [2, 3]: 1.2106

COc1cc(O)c2c(=O)c(OC)c(-c3ccc(OC)c(O)c3)oc2c1 [Compound 4, 3,7,4′-O-trimethyl quercetin]
Inhibition Mode [1]: Noncompetitive
KA (binding constant) [2]: 0.00021
KSV (Stern–Volmer quenching constant) ([2]; without substrate): 360 L/mol
n (number of binding sites) [2, 3]: 0.7071
